{"source": "paper PMC11329505", "about": "(Communications Chemistry, 2024)", "key": {"AGAL5": {"target": "T1, AGAL5 (Blautia pseudococcoides, UniProt A0A1C7IHX3)", "T1 sequence (A0A1C7IHX3 1-763)": "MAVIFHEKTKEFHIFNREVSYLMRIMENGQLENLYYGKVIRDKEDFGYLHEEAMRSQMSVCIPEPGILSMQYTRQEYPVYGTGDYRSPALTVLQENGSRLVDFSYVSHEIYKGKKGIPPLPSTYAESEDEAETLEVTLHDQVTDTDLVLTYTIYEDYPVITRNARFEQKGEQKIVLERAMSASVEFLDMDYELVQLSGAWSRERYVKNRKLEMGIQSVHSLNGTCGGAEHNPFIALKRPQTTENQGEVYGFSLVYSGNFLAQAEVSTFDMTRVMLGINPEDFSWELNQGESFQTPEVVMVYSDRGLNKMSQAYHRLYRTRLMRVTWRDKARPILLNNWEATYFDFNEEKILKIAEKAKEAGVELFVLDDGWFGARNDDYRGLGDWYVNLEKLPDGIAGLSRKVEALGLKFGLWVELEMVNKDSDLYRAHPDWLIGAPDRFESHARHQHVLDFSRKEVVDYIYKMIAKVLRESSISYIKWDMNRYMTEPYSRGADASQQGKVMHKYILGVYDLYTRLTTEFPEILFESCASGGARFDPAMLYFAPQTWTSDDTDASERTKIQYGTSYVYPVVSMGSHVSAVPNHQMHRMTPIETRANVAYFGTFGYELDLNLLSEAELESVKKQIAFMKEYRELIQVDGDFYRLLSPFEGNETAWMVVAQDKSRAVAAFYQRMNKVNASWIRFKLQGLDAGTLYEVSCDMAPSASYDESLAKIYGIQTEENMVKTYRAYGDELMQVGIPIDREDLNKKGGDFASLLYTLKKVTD", "test": "pNP-αGal colorimetric assay with additive", "format": "biochemical", "details": "5 mM maltose; pNP-αGal substrate"}, "AGAL3": {"target": "T2, AGAL3 (Turicibacter bilis, UniProt A0A9Q9CI38)", "T2 sequence (A0A9Q9CI38 1-743)": "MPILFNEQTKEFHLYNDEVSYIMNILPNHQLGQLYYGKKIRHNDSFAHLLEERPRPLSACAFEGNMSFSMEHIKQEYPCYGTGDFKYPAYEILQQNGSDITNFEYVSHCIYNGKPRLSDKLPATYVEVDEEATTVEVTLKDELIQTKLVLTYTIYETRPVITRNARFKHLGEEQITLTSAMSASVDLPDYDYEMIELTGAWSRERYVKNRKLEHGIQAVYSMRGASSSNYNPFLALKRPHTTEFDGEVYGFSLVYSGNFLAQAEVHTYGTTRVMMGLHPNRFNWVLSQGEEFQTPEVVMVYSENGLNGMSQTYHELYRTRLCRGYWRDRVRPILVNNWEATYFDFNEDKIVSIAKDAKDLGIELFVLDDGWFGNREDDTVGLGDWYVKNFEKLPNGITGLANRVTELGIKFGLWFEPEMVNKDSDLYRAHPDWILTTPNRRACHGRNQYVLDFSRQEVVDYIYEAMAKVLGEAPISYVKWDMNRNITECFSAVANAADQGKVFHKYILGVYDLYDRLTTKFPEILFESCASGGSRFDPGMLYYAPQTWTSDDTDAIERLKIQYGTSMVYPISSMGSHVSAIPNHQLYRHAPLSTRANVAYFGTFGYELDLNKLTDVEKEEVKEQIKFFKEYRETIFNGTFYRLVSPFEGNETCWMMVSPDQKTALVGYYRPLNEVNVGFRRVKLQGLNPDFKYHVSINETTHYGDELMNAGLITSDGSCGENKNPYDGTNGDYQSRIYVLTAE", "test": "pNP-αGal colorimetric assay with additive", "format": "biochemical", "details": "5 mM maltose; pNP-αGal substrate"}}, "data": [{"smiles": "OC[C@H]1O[C@H](O[C@H]2[C@H](O)[C@@H](O)C(O)O[C@@H]2CO)[C@H](O)[C@@H](O)[C@@H]1O", "note": "(some centres unmarked) [maltose]", "values": [{"measurement": "inhibition at 5 mM", "setting": "AGAL5", "value": "maltose had an inhibitory effect on AGAL3 and AGAL5"}, {"measurement": "inhibition at 5 mM", "setting": "AGAL3", "value": "maltose had an inhibitory effect on AGAL3 and AGAL5"}]}]}
